Reference: US11999956B2, “Targeted therapy composition and its use for suppressing breast cancer cell proliferation, migration or invasion” (NATIONAL CHENG KUNG UNIVERSITY, priority 2021, dated 2024)

Key:
[1] = system: AMPK-α1 and AMPK-α2; assay: Western blot, effect of Metformin on AMPK signaling pathway in SKBR3 cells; type: cell-based, human
Experimental: Cells were lyzed in a radioimmunoprecipitation assay (RIPA) lysis buffer (Thermo Fisher Scientific Inc., Waltham, MA) and protease inhibitors (Thermo Fisher Scientific Inc., Waltham, MA) were used for protein extraction. Briefly, a total of 30 μg of protein was prepared on a 6 to 12% SDS-PAGE and transferred to a 0.2 to 0.45 μm polyvinylidene difluoride membrane (Stratagene, La Jolla, CA) and blocked by 5% milk (non-fat milk) in Tris Buffered Saline Buffer with Tween 20 (TBST). The membrane was hybridized with primary antibody at 4° C. overnight. The following day, after being washed with TBST for three times, membranes were incubated with secondary antibodies (anti-rabbit or anti-mouse IgG antibody) for 1 hour at room temperature. Detection of protein bands was performed using enhanced chemiluminescence system (Amersham ECL Plus; GE Healthcare, Piscataway, NJ).
Please refer to FIGS. 12A to 12B. The potential impact of EMP3 on sensitivity to Metformin in SKBR3 cells in vitro was illustrated therein. […] That means knocking down of EMP3 raises survival rate of breast cancer cells upon treatment of Metformin, which may imply a desensitizing effect of EMP3 on breast cancer cells in upon Metformin treatment. […] As well-known in the field of endeavor, interference of cross-talk between AMPK and Wnt/β-catenin signaling pathways may decelerate cell growth of breast cancer cells. […]

[2] = system: SKBR3 cells; assay: IC50 of Metformin in SKBR3/Vec and SKBR3/siEMP3 cells; type: cell-based, human; details: 72 hours post treatment; SKBR3/siEMP3 vs SKBR3/Vec
Text: Please refer to FIGS. 12A to 12B. The potential impact of EMP3 on sensitivity to Metformin in SKBR3 cells in vitro was illustrated therein. […] That means knocking down of EMP3 raises survival rate of breast cancer cells upon treatment of Metformin, which may imply a desensitizing effect of EMP3 on breast cancer cells in upon Metformin treatment. […] As well-known in the field of endeavor, interference of cross-talk between AMPK and Wnt/β-catenin signaling pathways may decelerate cell growth of breast cancer cells. In example 7, the intervention level of Metformin to AMPK in SKBR3/Vec and SKBR3/siEMP3 cancer cells was verified.

CN(C)C(=N)N=C(N)N [Metformin]
AMPK-α1 expression [1]: down-regulated
AMPK-α2 expression [1]: down-regulated
IC50 values for Metformin in SKBR3/siEMP3 cells relative to vector control [2]: higher
